Test results published in patent publication US20120129811A1, “TRICYCLIC INHIBITORS OF PRO-MATRIX METALLOPROTEINASE ACTIVATION” (priority 2010, published 2012).
Counter-ions that a name gives are not always drawn.

Tests used:
[1] = biological target: T1, proMMP13(1-268) (SEQ ID NO:7) (Homo sapiens, UniProt P45452); assay: ThermoFluor binding assay with proMMP13(1-268)
T1 construct: 6xHis (C); made in house; host or cells: HEK293 (transient, secreted)
Description: The ThermoFluor® (TF) assay is a 384-well plate-based binding assay that measures thermal stability of proteins (Biomol Screen 2001, 6, 429-40; Biochemistry 2005, 44, 5258-66). The experiments were carried out using instruments available from Johnson & Johnson Pharmaceutical Research & Development, LLC. TF dye used in all experiments was […] (1,8-ANS) (Invitrogen: A-47).
Compounds were arranged in a pre-dispensed plate (Greiner Bio-one: 781280), wherein compounds were serially diluted in 100% DMSO across 11 columns within a series. Columns 12 and 24 were used as DMSO reference and contained no compound. For multiple compound concentration-response experiments, the compound aliquots (50 nL) were robotically predispensed directly into black 384-well polypropylene PCR microplates (Abgene: TF-0384/k) using a Cartesian Hummingbird liquid handler (DigiLab, Holliston, Mass.). Following compound dispense, protein and dye solutions were added to achieve the final assay volume of 3 μL. The assay solutions were overlayed with 1 μL of silicone oil (Fluka, type DC 200: 85411) to prevent evaporation.
Assay plates were robotically loaded onto a thermostatically controlled PCR-type thermal block and then heated from 40 to 90° C. at a ramp-rate of 1° C./min for all experiments. Fluorescence was measured by continuous illumination with UV light (Hamamatsu LC6) supplied via fiber optics and filtered through a band-pass filter (380-400 nm; >60D cutoff). Fluorescence emission of the entire 384-well plate was detected by measuring light intensity using a CCD camera (Sensys, Roper Scientific) filtered to detect 500±25 nm, resulting in simultaneous and independent readings of all 384 wells. A single image with 20-sec exposure time was collected at each temperature, and the sum of the pixel intensity in a given area of the assay plate was recorded vs temperature and fit to standard equations to yield the Tm (J Biomol Screen 2001, 6, 429-40).
Thermodynamic parameters necessary for fitting compound binding for each proMMP were estimated by differential scanning calorimetry (DSC) and from ThermoFluor® data. The heat capacity of unfolding for each protein was estimated from the molecular weight and from ThermoFluor® dosing data.
ThermoFluor® with proMMP13(1-268) (SEQ ID NO: 7)
The proMMP13(1-268) (SEQ ID NO:7) protein sample preparations included a desalting buffer exchange step via a PD-10 gravity column (GE Healthcare). The desalting buffer exchange was performed prior to diluting the protein to the final assay concentration of 3.5 μM. The concentration of proMMP13(1-268) (SEQ ID NO:7) was estimated spectrophotometrically based on a calculated extinction coefficient of ε280=37000 M^−1 cm^−1, a calculated molecular weight of 30.8 kDa, and calculated pI of 5.33. ThermoFluor® reference conditions were defined as follows: 100 μg/mL proMMP13(1-268) (SEQ ID NO:7), 25 μM 1,8-ANS, pH 7.0 Buffer (50 mM HEPES pH 7.0, 100 mM NaCl, 0.001% Tween-20, 2.5 mM MgCl2, 300 μM CaCl2). The thermodynamic parameters for proMMP13(1-268) (SEQ ID NO:7) are as follows: Tm (° C.)=67 (+/−0.1), ΔUH(Tm)) (cal mol^−1)=107000(+/−5000), ΔUSTm (cal mol^−1 K^−1)=318, ΔUCp (cal mol^−1 K^−1)=2600.

[2] = biological target: T2, proMMP9(67-444;ΔFnII) (SEQ ID NO:5) (Homo sapiens, UniProt P14780, DEL216-390); assay: ThermoFluor binding assay with proMMP9(67-444;ΔFnII)
T2 construct: start methionine (N); made in house; host or cells: E. coli BL21(DE3) RIL
T2 sequence (P14780 with tags, fused parts or gaps DEL216-390): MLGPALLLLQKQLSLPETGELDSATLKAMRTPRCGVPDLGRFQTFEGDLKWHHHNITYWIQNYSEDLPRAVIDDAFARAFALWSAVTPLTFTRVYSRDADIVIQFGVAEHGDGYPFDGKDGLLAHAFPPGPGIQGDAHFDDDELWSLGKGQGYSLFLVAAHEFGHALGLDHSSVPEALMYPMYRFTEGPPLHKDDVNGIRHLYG
Summary of the method: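 Thermal shift of 3.5 μM proMMP9(67-444;ΔFnII), desalted beforehand, with 50 μM 1,8-ANS in 50 mM HEPES pH 7.0, 100 mM NaCl, 2.5 mM MgCl2, 300 μM CaCl2, 0.001% Tween-20. Heated 40–90 °C at 1 °C/min, fluorescence read at 500 nm; binding fitted from Tm shifts using DSC- and ThermoFluor-derived unfolding parameters.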

[3] = biological target: T3, full-length proMMP9(1-707) activation by catalytic MMP3 (Homo sapiens, UniProt P14780, R574P); assay: proMMP9/MMP3 P126 Activation Assay; format: biochemical
T3 construct: made in house; host or cells: proMMP9: HEK293 (secreted); MMP3: E. coli
T3 sequence (P14780 20-707 R574P): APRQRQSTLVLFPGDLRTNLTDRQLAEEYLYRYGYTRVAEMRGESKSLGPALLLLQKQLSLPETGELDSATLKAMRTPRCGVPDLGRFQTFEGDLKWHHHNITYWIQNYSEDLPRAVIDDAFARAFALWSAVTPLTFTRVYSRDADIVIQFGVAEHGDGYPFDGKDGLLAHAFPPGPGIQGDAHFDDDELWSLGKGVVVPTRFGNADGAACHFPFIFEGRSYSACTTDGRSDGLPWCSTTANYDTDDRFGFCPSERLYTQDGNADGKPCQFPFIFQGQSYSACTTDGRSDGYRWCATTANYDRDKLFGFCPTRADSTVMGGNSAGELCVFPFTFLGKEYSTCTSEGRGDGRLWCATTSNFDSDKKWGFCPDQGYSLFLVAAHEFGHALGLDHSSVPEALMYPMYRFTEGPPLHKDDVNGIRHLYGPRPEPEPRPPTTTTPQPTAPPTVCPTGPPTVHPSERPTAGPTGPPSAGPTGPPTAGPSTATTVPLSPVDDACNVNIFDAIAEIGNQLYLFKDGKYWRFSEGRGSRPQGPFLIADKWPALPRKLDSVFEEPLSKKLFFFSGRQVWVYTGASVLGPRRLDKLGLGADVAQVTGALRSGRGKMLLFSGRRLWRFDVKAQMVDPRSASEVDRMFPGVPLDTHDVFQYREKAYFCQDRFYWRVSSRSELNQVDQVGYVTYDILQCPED
Description: proMMP9/MMP3 P126 Activation Assay
The reaction volume was 50 μL. […] Reactivity of residual MMP3 towards P-126 substrate was minimal under these conditions.

[4] = biological target: T4, proMMP9(20-445;ΔFnII) (SEQ ID NO:6) (Homo sapiens, UniProt P14780, DEL216-390); assay: ThermoFluor binding assay with proMMP9(20-445;ΔFnII)
T4 construct: start methionine (N); made in house; host or cells: E. coli BL21(DE3) RIL
T4 sequence (P14780 with tags, fused parts or gaps DEL216-390): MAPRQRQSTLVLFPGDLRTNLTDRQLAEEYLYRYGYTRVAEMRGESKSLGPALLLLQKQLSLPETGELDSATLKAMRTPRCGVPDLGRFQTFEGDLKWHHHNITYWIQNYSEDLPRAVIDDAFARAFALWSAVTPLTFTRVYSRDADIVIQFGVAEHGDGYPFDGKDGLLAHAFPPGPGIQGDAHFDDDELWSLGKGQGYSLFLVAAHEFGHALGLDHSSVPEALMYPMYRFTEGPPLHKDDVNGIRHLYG
Summary of the method: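 Protein thermal stability was measured with 2.8 μM proMMP9(20-445;ΔFnII) and 50 μM 1,8-ANS in 50 mM HEPES pH 7.0, 100 mM NaCl, 0.001% Tween-20, 2.5 mM MgCl2, 300 μM CaCl2, across serial compound dilutions. Samples were heated 40–90° C at 1° C/min with fluorescence read at 500 nm. Tm was fitted, and binding was derived from thermodynamic parameters obtained by DSC and ThermoFluor.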

Kd [1]	Kd [2]	IC50 [3]	Kd [4]	SMILES
7700 nM	900 nM	720 nM	4200 nM	COc1ccc(C)cc1Nc1nc2c(ccc3c2ncn3C)s1 [Example 41, (2-Methoxy-5-methyl-phenyl)-(6-methyl-6H-imidazo[4′,5′:3,4]benzo[2,1-d]thiazol-2-yl)-amine.HCl]
3400 nM	370 nM	350 nM	1900 nM	COc1ccc(OC)c(Nc2nc3c(ccc4c3ncn4C)s2)c1 [Example 42, (2,5-Dimethoxy-phenyl)-(6-methyl-6H-imidazo[4′,5′:3,4]-benzo[2,1-d]thiazol-2-yl)-amine.HCl]
2200 nM	600 nM	160 nM	1400 nM	COc1ccc(S(C)(=O)=O)cc1Nc1nc2c(ccc3c2ncn3C)s1 [Example 52, (5-Methanesulfonyl-2-methoxy-phenyl)-(6-methyl-6H-imidazo[4′,5′:3,4]benzo[2,1-d]thiazol-2-yl)-amine.HCl]
11000 nM	1100 nM	240 nM	1600 nM	COc1ccc(S(N)(=O)=O)cc1Nc1nc2c(ccc3c2ncn3C)s1 [Example 54, 4-Methoxy-3-(6-methyl-6H-imidazo[4′,5′:3,4]benzo[2,1-d]thiazol-2-ylamino)-benzenesulfonamide.HCl]
2100 nM	2200 nM	530 nM	6700 nM	COc1ccc(S(=O)(=O)N(C)C)cc1Nc1nc2c(ccc3c2ncn3C)s1 [Example 55, 4-Methoxy-N,N-dimethyl-3-(6-methyl-6H-imidazo[4′,5′:3,4]benzo[2,1-d]thiazol-2-ylamino)-benzenesulfonamide.HCl]
1500 nM	970 nM	340 nM	2800 nM	CCS(=O)(=O)c1ccc(OC)c(Nc2nc3c(ccc4c3ncn4C)s2)c1 [Example 60, (5-Ethanesulfonyl-2-methoxy-phenyl)-(6-methyl-6H-imidazo[4′,5′:3,4]-benzo[2,1-d]thiazol-2-yl)-amine.HCl]

Further lines, the molecule ahead of its results:

SMILES	Kd [1]	Kd [2]	IC50 [3]	Kd [4]
Cn1cnc2c3nc(Nc4ccccc4OCC(F)(F)F)sc3ccc21 [Example 43, (6-Methyl-6H-imidazo[4′,5′:3,4]-benzo[2,1-d]thiazol-2-yl)-[2-(2,2,2-trifluoro-ethoxy)-phenyl]-amine.HCl]	> 95000 nM	2800 nM	2500 nM	17000 nM
COc1c(Nc2nc3c(ccc4c3ncn4C)s2)cc(C(N)=O)c(F)c1F [Example 44, 2,3-Difluoro-4-methoxy-5-(6-methyl-6H-imidazo[4′,5′:3,4]-benzo[2,1-d]thiazol-2-ylamino)-benzamide.HCl]	9900 nM	6200 nM	3800 nM	25000 nM
COc1cc(C)c(C(N)=O)cc1Nc1nc2c(ccc3c2ncn3C)s1 [Example 56, 4-Methoxy-2-methyl-5-(6-methyl-6H-imidazo[4′,5′:3,4]benzo[2,1-d]thiazol-2-ylamino)-benzamide.HCl]	9800 nM	3300 nM	1100 nM	1000 nM
Cn1cnc2c3nc(Nc4ccccc4OC(F)(F)F)sc3ccc21 [Example 58, (6-Methyl-6H-imidazo[4′,5′:3,4]-benzo[2,1-d]thiazol-2-yl)-(2-trifluoromethoxy-phenyl)-amine.HCl]	21000 nM	930 nM	380 nM	2600 nM
CC(C)Oc1ccc(F)cc1Nc1nc2c(ccc3c2ncn3C)s1 [Example 59, (5-Fluoro-2-isopropoxy-phenyl)-(6-methyl-6H-imidazo[4′,5′:3,4]-benzo[2,1-d]thiazol-2-yl)-amine.HCl]	3200 nM	680 nM	450 nM	2000 nM
COC(=O)c1ccc(OC)c(Nc2nc3c(ccc4c3ncn4C)s2)c1 [Example 61, 4-Methoxy-3-(6-methyl-6H-imidazo[4′,5′:3,4]benzo[2,1-d]thiazol-2-ylamino)-benzoic acid methyl ester.HCl]	2100 nM	860 nM	650 nM	3200 nM
